From US20210369623A1, “COMPOSITION THAT FORMS LIQUID CRYSTALLINE PARTICLES” (Zeenar Enterprises Pty Ltd, priority 2018, published 2021)

How the values were obtained:
[1] = SAXS of mixtures of GMO and excipient/active ingredient immersed in PBS (liquid crystal phase and lattice size); format: physicochemical; parameters: lamella phase lattice size: unit not given here; conditions: for Threshold (minimum amount of ingredient required to increase the water channel size): % w/w of ingredient in GMO; for Phase structure: PBS buffer pH 6.8, ~22° C.; for Concentration at which V2(Pn3m) lattice size increased / Concentration of transformation/transition in liquid crystalline structure: concentration in GMO; for Concentration of transformation/transition in liquid crystalline structure: change to structure with larger water channels (e.g. Im3m)
Description: The samples were then mixed via a roller mixer at ˜10 RPM at 40° C. for at least 3 days.
One week prior to SAXS experiment, 100 mg samples were loaded into a transparent polystyrene 96 well plate (Nunc™) and immersed in 200 μL of PBS buffer (pH 6.8). The samples were stored away from light at ambient temperature, to allow the samples to reach equilibrium.
The SAXS/WAXS beamline at Australian Synchrotron, Melbourne, Australia was used to determine the liquid crystalline nanostructure in the samples.
A custom-designed plate holder was used to mount the samples plate directly onto the SAXS/WAXS beamline. Scans were automated using a pre-loaded set of position variables based on the well positions within the plate, the exposure time was 5 sec.
Data were obtained at ambient temperature (˜22° C.). […] The 2-D diffraction images were recorded on a Pilatus 1M detector and radially integrated using the in-house software “ScatterBrain”.

[2] = cited from earlier work
[3] = In vitro release/permeation through porcine buccal mucosa in modified Ussing chamber (rosuvastatin, oxycodone, atorvastatin); conditions: not yet tested
[4] = Concentration in GMO 1%, first value of the cell (first phase listed)
[5] = Concentration in GMO 5%, first value of the cell (first phase listed)
[6] = Concentration in GMO 10%, first value of the cell (first phase listed)
[7] = Concentration in GMO 10%, second value of the cell (second phase)
[8] = Concentration in GMO 15%, first value of the cell (first phase listed)
[9] = Concentration in GMO 15%, second value of the cell (second phase)
[10] = Concentration in GMO 20%, first value of the cell (first phase listed)

| Molecule | Threshold (minimum amount of ingredient required to increase the water channel size) [1] | Phase structure ([1]; Concentration in GMO 1%) | Lattice size [1, 4] | Phase structure ([1]; Concentration in GMO 5%) | Lattice size [1, 5] | Phase structure ([1]; Concentration in GMO 10%) | Lattice size [1, 6] | Lattice size [1, 7] | Phase structure ([1]; Concentration in GMO 15%) | Lattice size [1, 8] | Concentration at which V2(Pn3m) lattice size increased [1] | Concentration of transformation/transition in liquid crystalline structure [1] | also measured |
| --- | --- | --- | --- | --- | --- | --- | --- | --- | --- | --- | --- | --- | --- |
| Ibuprofen lysine | 3-5% | V2(Pn3m) | 88.9 Å | V2(Pn3m) | 105 Å | V2(Pn3m) + V2(Ia3d) | 131 Å | 189 Å | Lα + V2(Ia3d) | 80.7 Å | 5-10% | Transformation in structure by about 10%. | Lattice size [1, 9]: 198 Å |
| Magnesium stearate | – | – | – | – | – | – | – | – | – | – | – | – | V2(Pn3m) lattice size ([1]; ingredient 1-20% in GMO): 93 to 95 Å; lamella phase lattice size ([1]; ingredient at 5-30% in GMO): 50; H2 lattice size ([1]; ingredient at 30% in GMO): 62 nm |
| CCCCCCCC/C=C\CCCCCCCC(=O)OCCOCC(OCCO)C1OCC(OCCO)C1OCCO (stereo not drawn) [Tween 80] | size from an ODT. A threshold of 8-10% or about 10%. | V2(Pn3m) | 91.9 Å | V2(Pn3m) | 97.9 Å | V2(Pn3m) | 106 Å | 139 Å | – | – | Tween 80 - V2(Pn3m) lattice size increased at 10-20%. | Transformation in structure by about 20%. | Phase structure ([1]; Concentration in GMO 20%): V2(Pn3m) + V2(Im3m); Lattice size [1, 10]: 138 Å; Lattice size ([1]; Concentration in GMO 20%, second value of the cell (second phase)): 172 Å |
| OC[C@@H](O)[C@@H](O)[C@H](O)[C@@H](O)CO [Sorbitol] | – | – | – | – | – | – | – | – | – | – | – | – | V2(Pn3m) lattice size ([1]; ingredient 1 to 50% in GMO): 83 to 92 Å; V2(Ia3d) lattice size ([1]; ingredient at 1% in GMO, blended with V2(Pn3m)): about 138 nm; impact on the GMO cubic structure formed ([1]; tablet excipient mixed with GMO): minimal impact |
| O=C1NS(=O)(=O)c2ccccc21.[Na] [Saccharin sodium] | 3-5% | V2(Pn3m) | 95.4 Å | V2(Pn3m) | 107 Å | V2(Pn3m) + others | 120 Å | – | – | – | 5-10% | – | – |
| CC(C)c1c(C(=O)Nc2ccccc2)c(-c2ccccc2)c(-c2ccc(F)cc2)n1CC[C@@H](O)C[C@@H](O)CC(=O)O [Atorvastatin] | 8-10% | V2(Pn3m) | 93.1 Å | V2(Pn3m) | 99.2 Å | V2(Pn3m) | 105 Å | – | V2(Pn3m) | 101 Å | 10-35% | – | Phase structure ([1]; Concentration in GMO 20%): V2(Pn3m); Lattice size [1, 10]: 103 Å; Phase structure ([1]; Concentration in GMO 25%): V2(Pn3m); Lattice size ([1]; Concentration in GMO 25%, first value of the cell (first phase listed)): 102 Å; Phase structure ([1]; Concentration in GMO 35%): V2(Pn3m); Lattice size ([1]; Concentration in GMO 35%, first value of the cell (first phase listed)): 105 Å |
| CC(C)c1nc(N(C)S(C)(=O)=O)nc(-c2ccc(F)cc2)c1/C=C/[C@@H](O)C[C@@H](O)CC(=O)O [Rosuvastatin] | A threshold of 3-5% or about 5%. Transformation in structure | V2(Pn3m) | 84.2 Å | V2(Pn3m) | 109 Å | V2(Pn3m) | 109 Å | 131 Å | V2(Pn3m) + V2(Im3m) | 122 Å | Rosuvastatin - V2(Pn3m) lattice size increased at 5-15%. | – | Lattice size [1, 9]: 148 Å; logP [2]: 1.92 |
| CNCC(O)c1ccc(O)c(O)c1 (stereo not drawn) [Adrenaline] | – | – | – | – | – | – | – | – | – | – | – | – | passage through the porcine oral mucosa in a Ussing chamber [3]: expected to pass through the porcine oral mucosa; logP [2]: −0.5 to −1.4 |
| O=S(=O)([O-])NC1CCCCC1.[Na+] [Sodium cyclamate] | 3-5% | V2(Pn3m) | 93.1 Å | V2(Pn3m) | 103 Å | V2(Pn3m) + other | 113 Å | – | – | – | 5-10% | – | – |
| CCCCCCCCCCCCOS(=O)(=O)[O-].[Na+] [SLS, sodium lauryl sulphate] | 3-5% or about 5%. SLS was also tested in SBT137 and shown to increase | V2(Pn3m) | 95.4 Å | V2(Pn3m) | 116 Å | V2(Pn3m) | 133 Å | – | – | – | – | with large water channels. Transition at about 50%. | – |
